Legend:
Assay type in all cases: in vivo
[1] = tested on: Puccinia recondita f. sp. tritici; experiment: Puccinia recondita f. sp. tritici / wheat / leaf disc preventative (brown rust); conditions: foliar, wheat leaf segments cv. Kanzler, compared to untreated control leaf disks, read-out: disease control
Description: Puccinia recondita f. sp. tritici/Wheat/Leaf Disc Preventative (Brown Rust) Wheat leaf segments cv. Kanzler were placed on agar in multiwell plates (24-well format) and sprayed with the formulated test compound diluted in water. The leaf disks were inoculated with a spore suspension of the fungus 1 day after application. The inoculated leaf segments were incubated at 19° C. and 75% rh under a light regime of 12 h light/12 h darkness in a climate cabinet and the activity of a compound was assessed as percent disease control compared to untreated when an appropriate level of disease damage appears in untreated check leaf segments (7-9 days after application).

[2] = tested on: Puccinia recondita f. sp. tritici; experiment: Puccinia recondita f. sp. tritici / wheat / leaf disc curative (brown rust); conditions: foliar, 24 h, wheat leaf segments cv. Kanzler, curative (applied 1 day after inoculation), compared to untreated control leaf disks, read-out: disease control
Description: Puccinia recondita f. sp. tritici/Wheat/Leaf Disc Curative (Brown Rust) Wheat leaf segments cv. Kanzler are placed on agar in multiwell plates (24-well format). The leaf segments are inoculated with a spore suspension of the fungus. Plates were stored in darkness at 19° C. and 75% rh. The formulated test compound diluted in water was applied 1 day after inoculation.

Phakopsora pachyrhizi = Phakopsora pachyrhizi / soybean / leaf disk preventative (soybean rust); conditions: foliar, soybean leaf disks, compared to untreated control leaf disks, read-out: disease control
Description: Phakopsora pachyrhizi/Soybean/Leaf Disk Preventative (Soybean Rust) Four-week old soybean plants are sprayed in a spray chamber with the formulated test compound diluted in water. Leaf disks are cut from treated plants and placed on agar into 24-well plates one day after application. Leaf disks are inoculated by spraying them with a spore suspension on their lower leaf surface. After an incubation period in a climate cabinet of 24-36 hours in darkness at 20° C. and 75% rh, the leaf disks are then kept at 20° C. with 12 h light/day and 75% rh. The percentage leaf disk area covered by disease is assessed when an appropriate level of disease appears on untreated check plants (12-14 days after application).

[3] = tested on: Blumeria graminis f. sp. tritici (Erysiphe graminis f. sp. tritici); experiment: Blumeria graminis f. sp. tritici / wheat / leaf disc preventative (powdery mildew on wheat); conditions: foliar, wheat leaf segments cv. Kanzler, compared to untreated control leaf disks, read-out: disease control
Text: Blumeria graminis f. sp. tritici (Erysiphe graminis f. sp. tritici)/Wheat/Leaf Disc Preventative (Powdery Mildew on Wheat) Wheat leaf segments cv. Kanzler were placed on agar in a multiwell plate (24-well format) and sprayed with the formulated test compound diluted in water. The leaf disks were inoculated by shaking powdery mildew infected plants above the test plates 1 day after application.

Measured: pest or weed control at 200 ppm

C=C(C)CC(O)(c1cc(C)c(/N=C/N(C)CC)cc1OC)C(F)(F)F (stereo not shown) [Compound E1.075]
≥ 80%: all assays above

COc1cc(/N=C/N(C)C(C)C)c(C)cc1C(O)(C1CCCC1)C(F)(F)F (stereo not shown) [Compound E1.060]
≥ 80%: [1] | [2] | [3]

CCN(C)/C=N/c1cc(OC)c(C(O)(C2CCC2)C(F)(F)F)cc1C (stereo not shown) [Compound E1.069]
≥ 80%: all assays above

CCN(C)/C=N/c1cc(OC)c(C(O)(Cc2ccc(C)cc2)C(F)(F)F)cc1C (stereo not shown) [Compound E1.087]
≥ 80%: all assays above

CCCCC(O)(c1cc(C)c(/N=C/N(C)CC)cc1SC)C(F)(F)F (stereo not shown) [Compound E1.114]
≥ 80%: [2] | Phakopsora pachyrhizi | [3]

CCN(C)/C=N/c1cc(OC)c(C(O)(c2cccc(SC)c2)C(F)(F)F)cc1C (stereo not shown) [Compound E1.042]
≥ 80%: [2] | [3]

CCN(C)/C=N/c1cc(OC)c(C(O)(Cn2nc(C)c(C)c2C)C(F)(F)F)cc1C (stereo not shown) [Compound E1.095]
≥ 80%: all assays above

CCN(C)/C=N/c1cc(OC)c(C(O)(c2cnn(-c3ccccc3)c2)C(F)(F)F)cc1C (stereo not shown) [Compound E1.109]
≥ 80%: [1] | [2] | [3]

CCN(C)/C=N/c1cc(OC)c(C(O)(c2ccccc2)C(F)F)cc1C (stereo not shown) [Compound E1.005]
≥ 80%: all assays above

CCN(C)/C=N/c1cc(OC)c(C(O)(CCC(C)C)C(F)(F)F)cc1C (stereo not shown) [Compound E1.068]
≥ 80%: all assays above

CCN(C)/C=N/c1cc(OC)c(C(O)(c2ccc(SC(F)F)cc2)C(F)(F)F)cc1C (stereo not shown) [Compound E1.038]
≥ 80%: [2] | [3]

CCCCC(O)(c1cc(Cl)c(/N=C/N(C)CC)cc1OC)C(F)(F)F (stereo not shown) [Compound E1.117]
≥ 80%: all assays above

CCN(C)/C=N/c1cc(OC)c(C(O)(C2CCC(C)CC2)C(F)(F)F)cc1C (stereo not shown) [Compound E1.062]
≥ 80%: all assays above

C#CCC(O)(c1cc(C)c(/N=C/N(C)CC)cc1OC)C(F)(F)F (stereo not shown) [Compound E1.083]
≥ 80%: all assays above

CCN(C)/C=N/c1cc(OC)c([C@](O)(c2ccccc2)C(F)(F)F)cc1C [Compound E1.014]
≥ 80%: all assays above

CCN(C)/C=N/c1cc(OC)c(C(O)(C2=CCCCC2)C(F)(F)F)cc1C (stereo not shown) [Compound E1.080]
≥ 80%: [1] | [2] | [3]

CCN(C)/C=N/c1cc(OC)c(C(O)(Cc2ccc(F)cc2)C(F)(F)F)cc1C (stereo not shown) [Compound E1.091]
≥ 80%: [2] | Phakopsora pachyrhizi | [3]

COc1cc(/N=C/N(C)C2CC2)c(C)cc1C(O)(c1ccccc1)C(F)(F)F (stereo not shown) [Compound E1.008]
≥ 80%: [1] | [2]

CCN(C)/C=N/c1cc(OC)c(C(O)(C2CC2)C(F)(F)Cl)cc1C (stereo not shown) [Compound E1.120]
≥ 80%: all assays above

CCN(C)/C=N/c1cc(OC)c(C(O)(c2cc3ccccc3s2)C(F)(F)F)cc1C (stereo not shown) [Compound E1.103]
≥ 80%: all assays above

CCN(C)/C=N/c1cc(OC)c(C(O)(c2ccccc2)C(F)(F)Cl)cc1C (stereo not shown) [Compound E1.122]
≥ 80%: all assays above

CCN(C)/C=N/c1cc(OC)c(C(O)(C(C)C)C(F)(F)F)cc1C (stereo not shown) [Compound E1.054, N-ethyl-N′-[4-[1-hydroxy-2-methyl-1-(trifluoromethyl)propyl]-5-methoxy-2-methyl-phenyl]-N-methyl-formamidine]
≥ 80%: all assays above

CCCCC(O)(c1cc(C)c(/N=C/N(C)C(C)C)cc1OC)C(F)(F)F (stereo not shown) [Compound E1.053]
≥ 80%: all assays above

CCN(C)/C=N/c1cc(OC)c(C(O)(Cn2cncn2)C(F)(F)F)cc1C (stereo not shown) [Compound E1.098]
≥ 80%: [1] | [2] | [3]

C=CCC(O)(c1cc(C)c(/N=C/N(C)CC)cc1OC)C(F)(F)Cl (stereo not shown) [Compound E1.121]
≥ 80%: all assays above

CCN(C)/C=N/c1cc(OC)c(C(O)(Cn2cc3ccccc3n2)C(F)(F)F)cc1C (stereo not shown) [Compound E1.092]
≥ 80%: [1] | [2] | [3]

CCN(C)/C=N/c1cc(OC)c(C(O)(c2cc(Cl)cc(Cl)c2)C(F)(F)F)cc1C (stereo not shown) [Compound E1.013]
≥ 80%: [1] | [2] | [3]

CCN(C)/C=N/c1cc(OC)c(C(O)(Cn2nc(C)c(Cl)c2C)C(F)(F)F)cc1C (stereo not shown) [Compound E1.096]
≥ 80%: Phakopsora pachyrhizi

CCN(C)/C=N/c1cc(OC)c(C(O)(C2=CCCC2)C(F)(F)F)cc1C (stereo not shown) [Compound E1.079]
≥ 80%: [1] | [2] | [3]

CCN(C)/C=N/c1cc(OC)c(C(O)(c2cnn(C(C)C)c2)C(F)(F)F)cc1C (stereo not shown) [Compound E1.110]
≥ 80%: [1] | [2]

CCN(C)/C=N/c1cc(OC)c(C(O)(Cc2cccc(F)n2)C(F)(F)F)cc1C (stereo not shown) [Compound E1.102]
≥ 80%: [2] | Phakopsora pachyrhizi | [3]

CCN(C)/C=N/c1cc(OC)c(C(O)(c2cnn(CC)c2)C(F)(F)F)cc1C (stereo not shown) [Compound E1.111]
≥ 80%: [1] | [2] | Phakopsora pachyrhizi

Source: patent publication US10723695B2, “Microbiocidal phenylamidine derivatives” (SYNGENTA PARTICIPATIONS AG, priority 2015, dated 2020)
